Assay results published in the kinase profiling compilation of Christmann-Franck et al. (2016).

Experiments:
Assay in all cases: radiometric filter-binding kinase assay, Kinase HotSpot
Conditions in all cases: compound 0.5 µM; ATP 10 µM
[1] = target: ABL2 (human) (UniProt P42684)
[2] = target: ADRBK2 (human) (UniProt P35626)
[3] = target: AXL (human) (UniProt P30530)
[4] = target: CAMK2A (human) (UniProt Q9UQM7)
[5] = target: CAMK2G (human) (UniProt Q13555)
[6] = target: CDC42BPB (human) (UniProt Q9Y5S2)
[7] = target: CDK3 CCNE1 (human) (UniProt Q00526+P24864)
[8] = target: CSNK1G1 (human) (UniProt Q9HCP0)
[9] = target: DAPK3 (human) (UniProt O43293)
[10] = target: DDR2 (human) (UniProt Q16832)
[11] = target: ERBB4 (human) (UniProt Q15303)
[12] = target: FER (human) (UniProt P16591)
[13] = target: FGR (human) (UniProt P09769)
[14] = target: GRK5 (human) (UniProt P34947)
[15] = target: GSK3B (human) (UniProt P49841)
[16] = target: IRAK1 (human) (UniProt P51617)
[17] = target: ITK (human) (UniProt Q08881)
[18] = target: JAK1 JH1 catalytic (human) (UniProt P23458)
[19] = target: KIT (human) (UniProt P10721)
[20] = target: LTK (human) (UniProt P29376)
[21] = target: MAPK14 (human) (UniProt Q16539)
[22] = target: MAPK9 (human) (UniProt P45984)
[23] = target: MAPKAPK3 (human) (UniProt Q16644)
[24] = target: NLK (human) (UniProt Q9UBE8)
[25] = target: PAK2 (human) (UniProt Q13177)
[26] = target: PAK3 (human) (UniProt O75914)
[27] = target: PBK (human) (UniProt Q96KB5)
[28] = target: PDGFRA (human) (UniProt P16234)
[29] = target: PHKG1 (human) (UniProt Q16816)
[30] = target: PNCK (human) (UniProt Q6P2M8)
[31] = target: PRKCB2 (human) (UniProt P05771)
[32] = target: PRKCZ (human) (UniProt Q05513)
[33] = target: PRKG2 (human) (UniProt Q13237)
[34] = target: RPS6KA2 KD1 KD2 (human) (UniProt Q15349)
[35] = target: RPS6KA3 KD1 KD2 (human) (UniProt P51812)
[36] = target: SGK3 (human) (UniProt Q96BR1)
[37] = target: SIK2 (human) (UniProt Q9H0K1)
[38] = target: SRC (human) (UniProt P12931)
[39] = target: SRPK3 (human) (UniProt Q9UPE1)
[40] = target: TGFBR1 (human) (UniProt P36897)
[41] = target: TTK (human) (UniProt P33981)
[42] = target: TXK (human) (UniProt P42681)
Chain of TXK (human) (P42681 whole entry, looked up): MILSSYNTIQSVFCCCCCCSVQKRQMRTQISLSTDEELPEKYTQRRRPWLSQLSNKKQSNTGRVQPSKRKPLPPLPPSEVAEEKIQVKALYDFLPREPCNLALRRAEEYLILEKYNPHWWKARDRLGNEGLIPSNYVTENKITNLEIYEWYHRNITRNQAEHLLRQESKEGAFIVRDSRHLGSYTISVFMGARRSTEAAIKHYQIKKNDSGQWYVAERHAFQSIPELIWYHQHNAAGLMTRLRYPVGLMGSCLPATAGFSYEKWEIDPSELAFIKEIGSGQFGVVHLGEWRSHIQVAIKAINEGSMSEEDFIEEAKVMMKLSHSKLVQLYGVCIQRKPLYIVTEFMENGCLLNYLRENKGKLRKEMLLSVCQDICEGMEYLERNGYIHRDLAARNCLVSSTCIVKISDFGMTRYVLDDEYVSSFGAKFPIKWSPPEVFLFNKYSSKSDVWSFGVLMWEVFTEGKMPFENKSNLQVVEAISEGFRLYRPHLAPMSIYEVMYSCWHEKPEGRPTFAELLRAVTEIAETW

Chain of GSK3B (human) (P49841 whole entry, looked up): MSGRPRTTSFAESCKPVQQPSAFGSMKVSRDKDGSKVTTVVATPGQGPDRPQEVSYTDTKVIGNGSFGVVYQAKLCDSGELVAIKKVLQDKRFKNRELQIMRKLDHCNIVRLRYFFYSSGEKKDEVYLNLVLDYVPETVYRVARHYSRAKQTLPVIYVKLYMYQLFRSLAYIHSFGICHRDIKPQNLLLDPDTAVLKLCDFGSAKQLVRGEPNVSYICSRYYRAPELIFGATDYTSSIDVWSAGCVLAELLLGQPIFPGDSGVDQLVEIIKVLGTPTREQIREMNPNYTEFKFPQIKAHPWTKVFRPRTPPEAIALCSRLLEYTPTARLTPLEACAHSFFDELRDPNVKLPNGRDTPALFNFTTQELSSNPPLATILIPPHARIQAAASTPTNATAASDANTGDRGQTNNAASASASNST
Chain of MAPK14 (human) (Q16539 whole entry, looked up): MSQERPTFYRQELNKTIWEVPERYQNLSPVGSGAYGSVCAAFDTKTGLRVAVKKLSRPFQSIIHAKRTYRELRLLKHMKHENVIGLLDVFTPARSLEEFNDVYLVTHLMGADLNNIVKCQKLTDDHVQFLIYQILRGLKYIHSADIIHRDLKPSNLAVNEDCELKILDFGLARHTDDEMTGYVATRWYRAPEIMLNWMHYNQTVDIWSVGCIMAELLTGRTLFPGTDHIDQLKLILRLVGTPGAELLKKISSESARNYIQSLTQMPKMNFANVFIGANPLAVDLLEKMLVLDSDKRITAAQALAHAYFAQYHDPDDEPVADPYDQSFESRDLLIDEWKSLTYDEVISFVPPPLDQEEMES
Chain of PAK2 (human) (Q13177 whole entry, looked up): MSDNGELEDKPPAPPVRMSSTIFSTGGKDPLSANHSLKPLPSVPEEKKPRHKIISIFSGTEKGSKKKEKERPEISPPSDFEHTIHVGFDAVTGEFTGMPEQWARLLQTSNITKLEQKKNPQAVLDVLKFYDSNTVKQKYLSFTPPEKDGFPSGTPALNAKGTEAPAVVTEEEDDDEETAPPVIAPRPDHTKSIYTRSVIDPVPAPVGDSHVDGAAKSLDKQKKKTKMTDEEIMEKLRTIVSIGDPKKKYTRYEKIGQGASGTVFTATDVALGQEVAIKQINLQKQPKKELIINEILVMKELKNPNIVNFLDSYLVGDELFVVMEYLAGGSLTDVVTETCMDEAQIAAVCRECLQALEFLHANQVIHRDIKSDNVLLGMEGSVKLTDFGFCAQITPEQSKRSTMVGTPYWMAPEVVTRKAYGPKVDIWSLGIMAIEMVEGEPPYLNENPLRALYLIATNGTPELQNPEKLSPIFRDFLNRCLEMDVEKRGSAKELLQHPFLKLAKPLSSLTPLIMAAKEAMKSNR
Chain of JAK1 JH1 catalytic (human) (P23458 whole entry, looked up): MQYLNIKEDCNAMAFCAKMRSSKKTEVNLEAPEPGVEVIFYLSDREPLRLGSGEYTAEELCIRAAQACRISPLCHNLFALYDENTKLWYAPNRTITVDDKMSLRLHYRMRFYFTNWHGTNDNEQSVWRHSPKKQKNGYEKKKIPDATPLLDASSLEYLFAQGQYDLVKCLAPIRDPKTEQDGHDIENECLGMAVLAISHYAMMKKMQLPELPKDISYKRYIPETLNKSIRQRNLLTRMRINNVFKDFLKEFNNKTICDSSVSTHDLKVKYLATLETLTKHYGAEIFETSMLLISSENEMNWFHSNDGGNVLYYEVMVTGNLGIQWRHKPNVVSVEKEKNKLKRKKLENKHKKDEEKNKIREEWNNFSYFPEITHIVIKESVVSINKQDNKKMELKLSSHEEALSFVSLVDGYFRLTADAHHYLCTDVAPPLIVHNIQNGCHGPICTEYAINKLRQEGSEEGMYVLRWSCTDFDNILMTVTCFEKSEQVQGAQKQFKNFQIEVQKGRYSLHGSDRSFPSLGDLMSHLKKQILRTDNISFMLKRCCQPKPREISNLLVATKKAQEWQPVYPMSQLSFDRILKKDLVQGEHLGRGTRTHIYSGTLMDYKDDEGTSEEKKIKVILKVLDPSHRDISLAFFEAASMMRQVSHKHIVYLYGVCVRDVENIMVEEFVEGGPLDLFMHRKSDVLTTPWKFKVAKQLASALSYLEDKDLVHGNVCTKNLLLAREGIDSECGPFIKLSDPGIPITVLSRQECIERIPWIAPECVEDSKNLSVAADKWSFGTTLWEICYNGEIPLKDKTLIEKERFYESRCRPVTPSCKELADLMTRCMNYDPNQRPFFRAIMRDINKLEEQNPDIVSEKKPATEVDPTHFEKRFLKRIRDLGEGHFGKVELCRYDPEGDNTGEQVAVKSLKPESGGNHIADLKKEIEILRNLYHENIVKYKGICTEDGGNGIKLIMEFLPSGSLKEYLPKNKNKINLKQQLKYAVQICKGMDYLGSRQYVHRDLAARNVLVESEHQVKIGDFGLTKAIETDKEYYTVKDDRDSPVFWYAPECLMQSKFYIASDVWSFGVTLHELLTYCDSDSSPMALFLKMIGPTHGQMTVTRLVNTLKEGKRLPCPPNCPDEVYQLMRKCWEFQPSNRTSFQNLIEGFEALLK
Chain of SIK2 (human) (Q9H0K1 whole entry, looked up): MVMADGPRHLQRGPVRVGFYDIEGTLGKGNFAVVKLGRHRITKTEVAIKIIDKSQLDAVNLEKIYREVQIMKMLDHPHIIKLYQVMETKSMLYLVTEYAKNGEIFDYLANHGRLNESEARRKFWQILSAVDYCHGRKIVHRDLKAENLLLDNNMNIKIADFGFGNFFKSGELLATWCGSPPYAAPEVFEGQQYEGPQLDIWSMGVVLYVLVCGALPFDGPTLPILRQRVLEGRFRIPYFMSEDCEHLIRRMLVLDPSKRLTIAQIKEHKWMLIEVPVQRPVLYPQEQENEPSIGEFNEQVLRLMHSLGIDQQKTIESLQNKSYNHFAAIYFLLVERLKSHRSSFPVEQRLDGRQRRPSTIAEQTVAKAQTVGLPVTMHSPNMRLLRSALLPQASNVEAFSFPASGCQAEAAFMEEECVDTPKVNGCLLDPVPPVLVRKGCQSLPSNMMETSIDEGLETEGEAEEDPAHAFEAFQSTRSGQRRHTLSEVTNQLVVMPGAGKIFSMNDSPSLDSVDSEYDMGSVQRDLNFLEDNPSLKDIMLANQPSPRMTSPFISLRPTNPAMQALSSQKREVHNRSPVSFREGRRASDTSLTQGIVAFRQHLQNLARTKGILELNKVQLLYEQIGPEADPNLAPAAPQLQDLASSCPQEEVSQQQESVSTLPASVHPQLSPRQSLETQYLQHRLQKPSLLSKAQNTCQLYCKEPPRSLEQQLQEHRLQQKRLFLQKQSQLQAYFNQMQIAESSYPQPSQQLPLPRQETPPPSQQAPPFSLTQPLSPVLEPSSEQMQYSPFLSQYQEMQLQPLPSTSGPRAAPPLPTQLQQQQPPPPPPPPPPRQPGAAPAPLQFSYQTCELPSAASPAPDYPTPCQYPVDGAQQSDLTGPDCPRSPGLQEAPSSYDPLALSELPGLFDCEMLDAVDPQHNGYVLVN
Chain of MAPKAPK3 (human) (Q16644 whole entry, looked up): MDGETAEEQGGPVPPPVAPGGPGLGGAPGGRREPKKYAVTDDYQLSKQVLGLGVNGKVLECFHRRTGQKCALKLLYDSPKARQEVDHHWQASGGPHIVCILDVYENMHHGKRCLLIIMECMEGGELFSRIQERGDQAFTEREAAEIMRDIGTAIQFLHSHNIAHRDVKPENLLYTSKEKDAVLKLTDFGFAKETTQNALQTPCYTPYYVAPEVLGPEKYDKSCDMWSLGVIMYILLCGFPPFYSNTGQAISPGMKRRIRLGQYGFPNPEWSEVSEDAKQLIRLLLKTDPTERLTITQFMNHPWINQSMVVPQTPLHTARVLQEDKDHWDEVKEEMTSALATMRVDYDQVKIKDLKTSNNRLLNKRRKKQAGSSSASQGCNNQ
Chain of CSNK1G1 (human) (Q9HCP0 whole entry, looked up): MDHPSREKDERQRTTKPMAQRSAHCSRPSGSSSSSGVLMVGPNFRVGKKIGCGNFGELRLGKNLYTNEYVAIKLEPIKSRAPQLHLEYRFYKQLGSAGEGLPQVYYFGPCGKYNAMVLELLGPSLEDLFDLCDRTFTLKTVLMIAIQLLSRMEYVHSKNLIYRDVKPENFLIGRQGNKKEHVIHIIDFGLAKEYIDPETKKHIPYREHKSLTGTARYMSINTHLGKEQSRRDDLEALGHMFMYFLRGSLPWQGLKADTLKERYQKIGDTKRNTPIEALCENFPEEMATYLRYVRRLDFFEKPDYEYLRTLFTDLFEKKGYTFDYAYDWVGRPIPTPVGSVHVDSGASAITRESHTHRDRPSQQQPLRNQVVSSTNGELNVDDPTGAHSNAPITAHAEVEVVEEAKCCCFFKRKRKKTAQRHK

Compound: O=C(Nc1ccc(Cl)cc1)c1ccccc1NCc1ccncc1
- residual activity [1]: 93.4%
- residual activity [2]: 96.1%
- residual activity [3]: 98.1%
- residual activity [4]: 99.9%
- residual activity [5]: 89.2%
- residual activity [6]: 79.9%
- residual activity [7]: 87.4%
- residual activity [8]: 110%
- residual activity [9]: 94%
- residual activity [10]: 88.9%
- residual activity [11]: 71.3%
- residual activity [12]: 80.4%
- residual activity [13]: 83.8%
- residual activity [14]: 97.3%
- residual activity [15]: 89.3%
- residual activity [16]: 117%
- residual activity [17]: 94.1%
- residual activity [18]: 91.8%
- residual activity [19]: 33.6%
- residual activity [20]: 104%
- residual activity [21]: 128%
- residual activity [22]: 102%
- residual activity [23]: 91.4%
- residual activity [24]: 87.2%
- residual activity [25]: 91%
- residual activity [26]: 95.5%
- residual activity [27]: 88.5%
- residual activity [28]: 81.3%
- residual activity [29]: 94.2%
- residual activity [30]: 94.8%
- residual activity [31]: 93.3%
- residual activity [32]: 100%
- residual activity [33]: 99.1%
- residual activity [34]: 94.1%
- residual activity [35]: 91.4%
- residual activity [36]: 92.5%
- residual activity [37]: 94.8%
- residual activity [38]: 88.8%
- residual activity [39]: 100%
- residual activity [40]: 100%
- residual activity [41]: 102%
- residual activity [42]: 97.7%

Compound: Cc1cc2ncc(-c3ccccc3)nc2cc1C
- residual activity [1]: 103%
- residual activity [2]: 87.4%
- residual activity [3]: 100%
- residual activity [4]: 98.4%
- residual activity [5]: 105%
- residual activity [6]: 101%
- residual activity [7]: 96.7%
- residual activity [8]: 85.7%
- residual activity [9]: 90.3%
- residual activity [10]: 95.7%
- residual activity [11]: 96.4%
- residual activity [12]: 91%
- residual activity [13]: 99.1%
- residual activity [14]: 107%
- residual activity [15]: 79.5%
- residual activity [16]: 114%
- residual activity [17]: 100%
- residual activity [18]: 103%
- residual activity [19]: 63.5%
- residual activity [20]: 90.3%
- residual activity [21]: 103%
- residual activity [22]: 104%
- residual activity [23]: 100%
- residual activity [24]: 92.8%
- residual activity [25]: 99.3%
- residual activity [26]: 96.2%
- residual activity [27]: 94.5%
- residual activity [28]: 95.4%
- residual activity [29]: 97.4%
- residual activity [30]: 96.3%
- residual activity [31]: 124%
- residual activity [32]: 88.6%
- residual activity [33]: 99.3%
- residual activity [34]: 92.5%
- residual activity [35]: 94.2%
- residual activity [36]: 101%
- residual activity [37]: 87.4%
- residual activity [38]: 104%
- residual activity [39]: 91.4%
- residual activity [40]: 94.7%
- residual activity [41]: 91%
- residual activity [42]: 99.5%

Compound: CSc1nc(-c2ccc(F)cc2)c(-c2ccnc(NC(C)c3ccccc3)c2)[nH]1 (configuration not stated)
- residual activity [1]: 95.7%
- residual activity [2]: 96.4%
- residual activity [3]: 109%
- residual activity [4]: 96.5%
- residual activity [5]: 102%
- residual activity [6]: 98.8%
- residual activity [7]: 85.3%
- residual activity [8]: 67.2%
- residual activity [9]: 94.3%
- residual activity [10]: 89.8%
- residual activity [11]: 98.4%
- residual activity [12]: 97.2%
- residual activity [13]: 88.1%
- residual activity [14]: 103%
- residual activity [15]: 97.9%
- residual activity [16]: 103%
- residual activity [17]: 91.6%
- residual activity [18]: 104%
- residual activity [19]: 92.4%
- residual activity [20]: 83.6%
- residual activity [21]: 7.64%
- residual activity [22]: 31.1%
- residual activity [23]: 107%
- residual activity [24]: 30.7%
- residual activity [25]: 104%
- residual activity [26]: 94.5%
- residual activity [27]: 109%
- residual activity [28]: 102%
- residual activity [29]: 91.8%
- residual activity [30]: 92.9%
- residual activity [31]: 101%
- residual activity [32]: 111%
- residual activity [33]: 102%
- residual activity [34]: 94.3%
- residual activity [35]: 91%
- residual activity [36]: 103%
- residual activity [37]: 97.2%
- residual activity [38]: 99%
- residual activity [39]: 92.8%
- residual activity [40]: 93.3%
- residual activity [41]: 102%
- residual activity [42]: 93.1%

Compound: CCCNC(=O)Nc1ccc(Oc2ncnc3cc(OC)c(OC)cc23)cc1Cl
- residual activity [1]: 90.5%
- residual activity [2]: 96.6%
- residual activity [3]: 101%
- residual activity [4]: 97.5%
- residual activity [5]: 90.5%
- residual activity [6]: 87.4%
- residual activity [7]: 94%
- residual activity [8]: 97.1%
- residual activity [9]: 88.8%
- residual activity [10]: 67.6%
- residual activity [12]: 74.1%
- residual activity [13]: 70.2%
- residual activity [14]: 105%
- residual activity [15]: 91.3%
- residual activity [16]: 106%
- residual activity [17]: 96.9%
- residual activity [18]: 99.2%
- residual activity [19]: 39.2%
- residual activity [20]: 95.7%
- residual activity [21]: 122%
- residual activity [22]: 104%
- residual activity [23]: 95.8%
- residual activity [24]: 90.7%
- residual activity [25]: 81.4%
- residual activity [26]: 94.7%
- residual activity [27]: 66.2%
- residual activity [28]: 92.2%
- residual activity [29]: 91.3%
- residual activity [30]: 95.4%
- residual activity [31]: 93.6%
- residual activity [32]: 102%
- residual activity [33]: 97%
- residual activity [34]: 95.7%
- residual activity [35]: 94.9%
- residual activity [36]: 95.5%
- residual activity [37]: 101%
- residual activity [38]: 98.6%
- residual activity [39]: 95.8%
- residual activity [40]: 102%
- residual activity [41]: 88.6%
- residual activity [42]: 101%
